Measured values reported in ChEMBL document CHEMBL1212804, “Comparative study of the mutant prevention concentrations of moxifloxacin, levofloxacin, and gemifloxacin against pneumococci” (2010).
In brackets after ≈: the same amount, converted by molar mass.

Assays:
Type in all cases: functional
[1] = Ratio of AUC to MIC in Streptococcus pneumoniae ATCC 49619
[2] = system: Streptococcus pneumoniae; assay: Antibacterial activity against Streptococcus pneumoniae 1065 assessed as mutant prevention concentration by standard agar dilution method
[3] = system: Streptococcus pneumoniae; assay: Antibacterial activity against Streptococcus pneumoniae ATCC 49619 assessed as 90% mutant prevention concentration
[4] = system: Streptococcus pneumoniae; assay: Antibacterial activity against Streptococcus pneumoniae 1135 by standard agar dilution method
[5] = system: Streptococcus pneumoniae; assay: Antibacterial activity against Streptococcus pneumoniae 1151 by standard agar dilution method
[6] = system: Streptococcus pneumoniae; assay: Ratio of 90% mutant prevention concentration to MIC90 in Streptococcus pneumoniae ATCC 49619
[7] = system: Streptococcus pneumoniae; assay: Antibacterial activity against Streptococcus pneumoniae 1072 assessed as mutant prevention concentration by standard agar dilution method
[8] = system: Streptococcus pneumoniae; assay: Antibacterial activity against Streptococcus pneumoniae 1135 assessed as mutant prevention concentration by standard agar dilution method
[9] = system: Streptococcus pneumoniae; assay: Antibacterial activity against Streptococcus pneumoniae 3321 by standard agar dilution method
[10] = system: Streptococcus pneumoniae; assay: Antibacterial activity against Streptococcus pneumoniae 1065 by standard agar dilution method
[11] = system: Streptococcus pneumoniae; assay: Antibacterial activity against Streptococcus pneumoniae 1058 by standard agar dilution method
[12] = system: Streptococcus pneumoniae; assay: Antibacterial activity against Streptococcus pneumoniae 1151 assessed as mutant prevention concentration by standard agar dilution method
[13] = system: Streptococcus pneumoniae; assay: Antibacterial activity against Streptococcus pneumoniae ATCC 49619
[14] = system: Streptococcus pneumoniae; assay: Antibacterial activity against Streptococcus pneumoniae 1149 by standard agar dilution method
[15] = system: Streptococcus pneumoniae; assay: Ratio of 50% mutant prevention concentration to MIC50 in Streptococcus pneumoniae ATCC 49619
[16] = system: Streptococcus pneumoniae; assay: Antibacterial activity against Streptococcus pneumoniae 1072 by standard agar dilution method
[17] = system: Streptococcus pneumoniae; assay: Antibacterial activity against Streptococcus pneumoniae ATCC 49619 assessed as 50% mutant prevention concentration
[18] = system: Streptococcus pneumoniae; assay: Antibacterial activity against Streptococcus pneumoniae 1149 assessed as mutant prevention concentration by standard agar dilution method
[19] = system: Streptococcus pneumoniae; assay: Antibacterial activity against Streptococcus pneumoniae 3321 assessed as mutant prevention concentration by standard agar dilution method
[20] = system: Streptococcus pneumoniae; assay: Antibacterial activity against Streptococcus pneumoniae 1058 assessed as mutant prevention concentration by standard agar dilution method

SMILES	Activity [2] [µg/mL]	Activity [3] [µg/mL]	MIC [4] [µg/mL]	MIC [5] [µg/mL]	Ratio [6]	Activity [7] [µg/mL]	Activity [8] [µg/mL]	MIC [9] [µg/mL]	MIC [10] [µg/mL]	MIC [11] [µg/mL]	Activity [12] [µg/mL]	MIC50 [13] [µg/mL]	MIC90 [13] [µg/mL]	MIC [14] [µg/mL]	Ratio [15]	MIC [16] [µg/mL]	Activity [17] [µg/mL]	Activity [18] [µg/mL]	Activity [19] [µg/mL]	Activity [20] [µg/mL]	other results
O=C(O)c1cn(C2CC2)c2cc(N3CCNCC3)c(F)cc2c1=O	–	–	–	–	–	–	–	–	–	–	–	–	–	–	–	–	–	–	–	–	RatioAUC/MIC [1]: 30
CO/N=C1\CN(c2nc3c(cc2F)c(=O)c(C(=O)O)cn3C2CC2)CC1CN (configuration not stated) [GEMIFLOXACIN]	4	4	0.5 (≈ 1.28 µM)	1 (≈ 2.57 µM)	4	8	4	0.125 (≈ 0.321 µM)	0.125 (≈ 0.321 µM)	0.125 (≈ 0.321 µM)	8	0.125 (≈ 0.321 µM)	1 (≈ 2.57 µM)	0.5 (≈ 1.28 µM)	4	1 (≈ 2.57 µM)	0.5	>8	2	1	–
C[C@H]1COc2c(N3CCN(C)CC3)c(F)cc3c(=O)c(C(=O)O)cn1c23.C[C@H]1COc2c(N3CCN(C)CC3)c(F)cc3c(=O)c(C(=O)O)cn1c23.O [LEVOFLOXACIN]	32	64	–	–	–	256	128	–	–	–	32	2	32	–	–	–	4	>64	32	64	–
COc1c(N2C[C@@H]3CCCN[C@@H]3C2)c(F)cc2c(=O)c(C(=O)O)cn(C3CC3)c12 [MOXIFLOXACIN]	>8	16	2 (≈ 4.98 µM)	1 (≈ 2.49 µM)	4	64	32	0.5 (≈ 1.25 µM)	0.5 (≈ 1.25 µM)	0.5 (≈ 1.25 µM)	>8	0.5 (≈ 1.25 µM)	4 (≈ 9.96 µM)	0.5 (≈ 1.25 µM)	2	8 (≈ 19.9 µM)	1	>8	>8	>4	–
